Tested on: C57/B6 mouse embryos
Experiment: Reproductive studies: maternal, fetal and gross/visceral malformation observations after treatment on GD-8 or GD-13
Format: in vivo
Settings: for Placental weight, IUGR −1SD / Placental weight, IUGR −2SD: fraction (percentage); for Fetal weight, IUGR −1SD / Fetal weight, IUGR −2SD: fraction of fetuses (percentage); for Number of female embryos / Number of male embryos: number (percentage); for Exomphalos / Eye open / Kinky tail / Left/right kidney hypo/descended / Mandible hypoplasia / Maxilla hypoplasia / Microtia/low set microtia / Undescended testis: number of embryos (percentage); for Live fetus/litter / Resorption/litter: parentheses contain percentages
Description: Reproductive studies were conducted in adult female mice, averaging 30 gm in weight and 6 weeks in age ([Padmanabhan et al., 2006]; [Bastaki et al., 2018]). Following successful mating, indicated by vaginal plug observation, the plug-positive day was considered gestation day 0 (GD-0). DL76 was administered at various doses (7.5 mg/kg, 15 mg/kg, 30 mg/kg, and 60 mg/kg) through single i.p. injections and three 15 mg/kg injections in 1 day to mouse groups on GD-8 and GD-13 (Tables 1, 2). The control group was injected with normal saline. Appropriate formation of different organs occurs in specific periods of the development of the mouse. These two periods were selected because GD-8 is known to be a critical period for the induction of neural tube defects, craniofacial malformations, and the development of other organs, whereas on GD-13, the retina and other parts are being formed, and most other organs have been formed. The number of implantations, fetal deaths, and resorptions was recorded. Fetal and placental weights were documented separately. After blotting dry, the fetuses were weighed and fixed in 95% ethanol. The reproductive toxicological effects of DL76 were assessed by observing gross and visceral malformations, following [Sterz and Lehmann (1985)], [Abdulrazzaq et al. (1997)], [Padmanabhan et al. (2003)], and [Padmanabhan et al. (2006)].
Deformities of the embryos were identified according to a modified method of [Sterz and Lehmann (1985)], [Abdulrazzaq et al. (1997)], and [Bass et al. (2020)]. Accordingly, the embryos were removed from the 95% ethanol, and the lower part of the abdomen was cut using a razor blade. All organs were checked for abnormalities with a stereo dissecting microscope, and finally, the organs were removed by using forceps.
Statistical analyses employed SPSS 26.0 (IBM Middle East, Dubai, UAE). Data were presented as means ± SEM. […] Fetal abnormality data were presented as counts and percentages. Fisher’s exact test compared the percentages of abnormalities between the control group (saline) and the different dose groups. All tests were two-tailed, and significance was set at p < 0.05.

SMILES: CC(C)(C)c1ccc(OCCCN2CCCCC2)cc1 [DL76, 1-(3-(4-tert-butyl-phenoxy)propyl) piperidine]
- Fetal weight/Litter (g) (Mean ± SD) (7.5 mg/kg i.p. on GD-8): 1.143 ± 0.107 g
- Fetuses/litter (7.5 mg/kg i.p. on GD-8): 7.714 ± 1.890
- Placental weight/Litter (g) (mean ± SD) (7.5 mg/kg i.p. on GD-8): 0.109 ± 0.11 g
- Placental weight, IUGR −1SD (7.5 mg/kg i.p. on GD-8): 0
- Placental weight, IUGR −2SD (7.5 mg/kg i.p. on GD-8): 0
- Fetal weight, IUGR −1SD (7.5 mg/kg i.p. on GD-8): 0
- Fetal weight, IUGR −2SD (7.5 mg/kg i.p. on GD-8): 0
- Number of female embryos (7.5 mg/kg i.p. on GD-8): 19 (43.2)
- Number of male embryos (7.5 mg/kg i.p. on GD-8): 25 (56.8)
- Exomphalos (7.5 mg/kg i.p. on GD-8): 0
- Eye open (7.5 mg/kg i.p. on GD-8): 2 (4.5)
- Kinky tail (7.5 mg/kg i.p. on GD-8): 0
- Left/right kidney hypo/descended (7.5 mg/kg i.p. on GD-8): 1 (2.3)
- Mandible hypoplasia (7.5 mg/kg i.p. on GD-8): 3 (6.8)
- Maxilla hypoplasia (7.5 mg/kg i.p. on GD-8): 3 (6.8)
- Microtia/low set microtia (7.5 mg/kg i.p. on GD-8): 2 (4.5)
- Undescended testis (7.5 mg/kg i.p. on GD-8): 2 (4.5)
- Live fetus/litter (7.5 mg/kg i.p. on GD-8): 6.289 (81.48)
- Resorption/litter (7.5 mg/kg i.p. on GD-8): 1.429 (18.51)
- Fetal weight Litter (g) (Mean ± SD) (7.5 mg/kg i.p. on GD-13): 1.018 ± 0.103 g
- Fetuses/litter (7.5 mg/kg i.p. on GD-13): 8.000 ± 1.291
- Placental weight/Litter (g) (mean ± SD) (7.5 mg/kg i.p. on GD-13): 0.105 ± 0.011 g
- Placental weight, IUGR −2SD (7.5 mg/kg i.p. on GD-13): 0
- Fetal weight, IUGR −2SD (7.5 mg/kg i.p. on GD-13): 0
- Number of female embryos (7.5 mg/kg i.p. on GD-13): 27 (54.0)
- Number of male embryos (7.5 mg/kg i.p. on GD-13): 23 (46.0)
- Exomphalos (7.5 mg/kg i.p. on GD-13): 0
- Eye open (7.5 mg/kg i.p. on GD-13): 3 (6.0)
- Kinky tail (7.5 mg/kg i.p. on GD-13): 0
- Left/right kidney hypo/descended (7.5 mg/kg i.p. on GD-13): 2 (4.0)
- Mandible hypoplasia (7.5 mg/kg i.p. on GD-13): 4 (8.0)
- Microtia/low set microtia (7.5 mg/kg i.p. on GD-13): 2 (4.0)
- Undescended testis (7.5 mg/kg i.p. on GD-13): 1 (2.0)
- Maxilla hypoplasia (7.5 mg/kg i.p. on GD-13, * p < 0.05 vs control): 4 (8.0)*
- Resorption/litter (7.5 mg/kg i.p. on GD-13): 0.857 (10.71)
- Fetal weight/Litter (g) (Mean ± SD) (15 mg/kg i.p. on GD-8): 0.993 ± 0.106 g
- Fetuses/litter (15 mg/kg i.p. on GD-8): 7.167 ± 2.317
- Placental weight/Litter (g) (mean ± SD) (15 mg/kg i.p. on GD-8): 0.105 ± 0.009 g
- Placental weight, IUGR −1SD (15 mg/kg i.p. on GD-8): 0
- Placental weight, IUGR −2SD (15 mg/kg i.p. on GD-8): 0
- Fetal weight, IUGR −1SD (15 mg/kg i.p. on GD-8): 0
- Number of female embryos (15 mg/kg i.p. on GD-8): 20 (52.6)
- Number of male embryos (15 mg/kg i.p. on GD-8): 18 (47.4)
- Exomphalos (15 mg/kg i.p. on GD-8): 1 (2.6)
- Eye open (15 mg/kg i.p. on GD-8): 3 (7.9)
- Kinky tail (15 mg/kg i.p. on GD-8): 0
- Left/right kidney hypo/descended (15 mg/kg i.p. on GD-8): 2 (5.3)
- Mandible hypoplasia (15 mg/kg i.p. on GD-8): 3 (7.9)
- Maxilla hypoplasia (15 mg/kg i.p. on GD-8): 1 (2.6)
- Microtia/low set microtia (15 mg/kg i.p. on GD-8): 1 (2.6)
- Undescended testis (15 mg/kg i.p. on GD-8): 0
- Live fetus/litter (15 mg/kg i.p. on GD-8): 6.338 (88.37)
- Resorption/litter (15 mg/kg i.p. on GD-8): 0.833 (11.62)
- Fetal weight Litter (g) (Mean ± SD) (15 mg/kg i.p. on GD-13): 0.998 ± 0.063 g
- Fetuses/litter (15 mg/kg i.p. on GD-13): 7.571 ± 1.272
- Placental weight/Litter (g) (mean ± SD) (15 mg/kg i.p. on GD-13): 0.113 ± 0.015 g
- Placental weight, IUGR −2SD (15 mg/kg i.p. on GD-13): 0
- Fetal weight, IUGR −2SD (15 mg/kg i.p. on GD-13): 0
- Number of female embryos (15 mg/kg i.p. on GD-13): 18 (45.0)
- Number of male embryos (15 mg/kg i.p. on GD-13): 22 (55.0)
- Exomphalos (15 mg/kg i.p. on GD-13): 0
- Eye open (15 mg/kg i.p. on GD-13): 2 (5.0)
- Kinky tail (15 mg/kg i.p. on GD-13): 0
- Left/right kidney hypo/descended (15 mg/kg i.p. on GD-13): 1 (2.5)
- Mandible hypoplasia (15 mg/kg i.p. on GD-13): 4 (10.0)
- Maxilla hypoplasia (15 mg/kg i.p. on GD-13): 3 (7.5)
- Microtia/low set microtia (15 mg/kg i.p. on GD-13): 2 (5.0)
- Undescended testis (15 mg/kg i.p. on GD-13): 1 (2.5)
- Live fetus/litter (15 mg/kg i.p. on GD-13): 5.714 (75.47)
- Resorption/litter (15 mg/kg i.p. on GD-13): 1.857 (24.53)
- Fetal weight/Litter (g) (Mean ± SD) (30 mg/kg i.p. on GD-8): 1.004 ± 0.047 g
- Fetuses/litter (30 mg/kg i.p. on GD-8): 8.429 ± 0.787
- Placental weight/Litter (g) (mean ± SD) (30 mg/kg i.p. on GD-8): 0.097 ± 0.019 g
- Fetal weight, IUGR −2SD (30 mg/kg i.p. on GD-8): 0
- Number of female embryos (30 mg/kg i.p. on GD-8): 27 (52.9)
- Number of male embryos (30 mg/kg i.p. on GD-8): 24 (47.1)
- Exomphalos (30 mg/kg i.p. on GD-8): 1 (2.0)
- Eye open (30 mg/kg i.p. on GD-8): 2 (3.9)
- Kinky tail (30 mg/kg i.p. on GD-8): 1 (2.0)
- Mandible hypoplasia (30 mg/kg i.p. on GD-8): 3 (5.9)
- Microtia/low set microtia (30 mg/kg i.p. on GD-8): 2 (3.9)
- Undescended testis (30 mg/kg i.p. on GD-8): 0
- Maxilla hypoplasia (30 mg/kg i.p. on GD-8, * p < 0.05 vs control): 2 (3.9)*
- Live fetus/litter (30 mg/kg i.p. on GD-8): 7.286 (86.44)
- Resorption/litter (30 mg/kg i.p. on GD-8): 1.143 (13.56)
- Fetal weight Litter (g) (Mean ± SD) (30 mg/kg i.p. on GD-13): 1.069 ± 0.082 g
- Fetuses/litter (30 mg/kg i.p. on GD-13): 7.000 ± 1.155
- Placental weight/Litter (g) (mean ± SD) (30 mg/kg i.p. on GD-13): 0.103 ± 0.006 g
- Placental weight, IUGR −2SD (30 mg/kg i.p. on GD-13): 0
- Fetal weight, IUGR −2SD (30 mg/kg i.p. on GD-13): 0

— publication PMC11188305, “Reproductive and fetal toxicity studies of histamine H3 receptor antagonist DL76 used in mice to prevent maximal electroshock-induced seizure” (Frontiers in Pharmacology, 2024)
